# Source: US10711000B2 (Fronthera U.S. Pharmaceuticals LLC, priority 2018, dated 2020)
# Like-named read-outs stand apart in the source and are kept apart here.
# Target: T1, Autotaxin (Homo sapiens, UniProt Q13822)
# T1 construct: from tissue; host or cells: pooled human plasma
# Assay: LPA formation in pooled human plasma (ex vivo autotaxin inhibition)
# Assay type: biochemical
# Details: 2 hours incubation
# Outline: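 Pooled human plasma incubated 2 h with various compound concentrations; LPA 18:2 and 20:4 quantified by LC/MS/MS (negative-ion MRM, LPA17:0 internal standard) after butanol extraction. Inhibition of LPA formation relative to untreated plasma; IC50 by non-linear regression.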
# [1] = LPA 18:2 by LC/MS/MS, read-out: LPA formation (18:2) (IC50)
# [2] = LPA 20:4 by LC/MS/MS, read-out: LPA formation (20:4) (IC50)
IC50 [1] [nM],IC50 [2] [nM],SMILES
100 to 500,100 to 500,Cc1cc(N2CCN(C3COCC3O)CC2)cc2c(N(C)c3nc(-c4ccc(F)cc4)c(C#N)s3)c(C3CC3)nn12 (stereo not shown) [Example 92]
100 to 500,100 to 500,"CCc1nn2c(C)cc(N3CCC4(CN(C[C@@H](O)CO)C4)C3)cc2c1N(C)c1nc(-c2ccc(F)cc2)c(C#N)s1 [Example 69, (R)-2-((5-(2-(2,3-dihydroxypropyl)-2,6-diazaspiro[3.4]octan-6-yl)-2-ethyl-7-methylpyrazolo[1,5-a]pyridin-3-yl)(methyl)amino)-4-(4-fluorophenyl)thiazole-5-carbonitrile]"
≤ 100,≤ 100,"CCc1nn2c(C)cc(N3CC4(CN(C(=O)N5CCN(C)CC5)C4)C3)cc2c1N(C)c1nc(-c2ccc(F)cc2)c(C#N)s1 [Example 32, 2-((2-ethyl-7-methyl-5-(6-(4-methylpiperazine-1-carbonyl)-2,6-diazaspiro[3.3]heptan-2-yl)pyrazolo[1,5-a]pyridin-3-yl)(methyl)amino)-4-(4-fluorophenyl)thiazole-5-carbonitrile]"
100 to 500,100 to 500,"CCc1nn2c(C)cc(N3CCN(CC(=O)N4CC[C@H](O)C4)CC3)cc2c1N(C)c1nc(-c2ccc(F)cc2)c(C#N)s1 [Example 26, (S)-2-((2-ethyl-5-(4-(2-(3-hydroxypyrrolidin-1-yl)-2-oxoethyl)piperazin-1-yl)-7-methylpyrazolo[1,5-a]pyridin-3-yl)(methyl)amino)-4-(4-fluorophenyl)thiazole-5-carbonitrile]"
> 1000,> 1000,"Cc1cc(N2CC(O)C2)cc2c(N(C)c3nc(-c4ccc(F)cc4)c(C#N)s3)c(C3CC3)nn12 [Example 87, 2-[[2-cyclopropyl-5-(3-hydroxyazetidin-1-yl)-7-methyl-pyrazolo[1,5-a]pyridin-3-yl]-methyl-amino]-4-(4-fluorophenyl)thiazole-5-carbonitrile]"
≤ 100,≤ 100,"CCc1nn2c(C)cc(N3CCN(CC(=O)N4CC(CO)C4)CC3)cc2c1N(C)c1nc(-c2ccc(F)cc2)c(C#N)s1 [Example 27, 2-((2-ethyl-5-(4-(2-(3-(hydroxymethyl)azetidin-1-yl)-2-oxoethyl)piperazin-1-yl)-7-methylpyrazolo[1,5-a]pyridin-3-yl)(methyl)amino)-4-(4-fluorophenyl)thiazole-5-carbonitrile]"
≤ 100,≤ 100,"Cc1cc(N2CCC3(CN(C(=O)[C@H]4CCOC4)C3)C2)cc2c(N(C)c3nc(-c4ccc(F)cc4)c(C#N)s3)c(C3CC3)nn12 [Example 86, (S)-2-((2-cyclopropyl-7-methyl-5-(2-(tetrahydrofuran-3-carbonyl)-2,6-diazaspiro[3.4]octan-6-yl)pyrazolo[1,5-a]pyridin-3-yl)(methyl)amino)-4-(4-fluorophenyl)thiazole-5-carbonitrile]"
100 to 500,100 to 500,"Cc1cc(N2CCC(N3CC(O)C3)CC2)cc2c(N(C)c3nc(-c4ccc(F)cc4)c(C#N)s3)c(C3CC3)nn12 [Example 93, 2-((2-cyclopropyl-5-(4-(3-hydroxyazetidin-1-yl)piperidin-1-yl)-7-methylpyrazolo[1,5-a]pyridin-3-yl)(methyl)amino)-4-(4-fluorophenyl)thiazole-5-carbonitrile]"
≤ 100,≤ 100,"CCc1nn2c(C)cc(N3CCC4(CN(C(=O)[C@H]5CCCO5)C4)C3)cc2c1N(C)c1nc(-c2ccc(F)cc2)c(C#N)s1 [Example 49, (R)-2-((2-ethyl-7-methyl-5-(2-(tetrahydrofuran-2-carbonyl)-2,6-diazaspiro[3.4]octan-6-yl)pyrazolo[1,5-a]pyridin-3-yl)(methyl)amino)-4-(4-fluorophenyl)thiazole-5-carbonitrile]"
100 to 500,100 to 500,"Cc1cc(N2CCN(C[C@@H](O)CO)CC2)cc2c(N(C)c3nc(-c4ccc(F)cc4)c(C#N)s3)c(C3CC3)nn12 [Example 82, (R)-2-((2-cyclopropyl-5-(4-(2,3-dihydroxypropyl)piperazin-1-yl)-7-methylpyrazolo[1,5-a]pyridin-3-yl)(methyl)amino)-4-(4-fluorophenyl)thiazole-5-carbonitrile]"

# The next lines start with the molecule.
SMILES,IC50 [1] [nM],IC50 [2] [nM]
"CCc1nn2ccc(N3CC4(CN(C(=O)N5CCN(C)CC5)C4)C3)cc2c1N(C)c1nc(-c2ccc(F)cc2)c(C#N)s1 [Example 14, 2-((2-ethyl-5-(6-(4-methylpiperazine-1-carbonyl)-2,6-diazaspiro[3.3]heptan-2-yl)pyrazolo[1,5-a]pyridin-3-yl)(methyl)amino)-4-(4-fluorophenyl)thiazole-5-carbonitrile]",≤ 100,≤ 100
"CCc1nn2ccc(N3CCC4(CC3)CN(C(=O)N3CC(O)C3)C4)cc2c1N(C)c1nc(-c2ccc(F)cc2)c(C#N)s1 [Example 12, 2-((2-ethyl-5-(2-(3-hydroxyazetidine-1-carbonyl)-2,7-diazaspiro[3.5]nonan-7-yl)pyrazolo[1,5-a]pyridin-3-yl)(methyl)amino)-4-(4-fluorophenyl)thiazole-5-carbonitrile]",≤ 100,≤ 100
"CCc1nn2ccc(N3CCN(CC(=O)N4CC(CO)C4)CC3)cc2c1N(C)c1nc(-c2ccc(F)cc2)c(C#N)s1 [Example 4, 2-((2-ethyl-5-(4-(2-(3-(hydroxymethyl)azetidin-1-yl)-2-oxoethyl)piperazin-1-yl)pyrazolo[1,5-a]pyridin-3-yl)(methyl)amino)-4-(4-fluorophenyl)thiazole-5-carbonitrile]",≤ 100,≤ 100
"CCn1nc2c(C)cc(N3CCN(CC(=O)N4CC(O)C4)CC3)cc2c1N(C)c1nc(-c2ccc(F)cc2)c(C#N)s1 [Compound 125, 2-((2-ethyl-5-(4-(2-(3-hydroxyazetidin-1-yl)-2-oxoethyl)piperazin-1-yl)-7-methyl-2H-indazol-3-yl)(methyl)amino)-4-(4-fluorophenyl)thiazole-5-carbonitrile]",500 to 1000,500 to 1000
"CCc1nn2c(C)cc(N3CCN(CC(=O)N4CC(O)C4)CC3)nc2c1N(C)c1nc(-c2ccc(F)cc2)c(C#N)s1 [Example 95, 2-((2-ethyl-5-(4-(2-(3-hydroxyazetidin-1-yl)-2-oxoethyl)piperazin-1-yl)-7-methylpyrazolo[1,5-a]pyrimidin-3-yl)(methyl)amino)-4-(4-fluorophenyl)thiazole-5-carbonitrile]",> 1000,> 1000
"CCc1nn2c(C)cc(N3CC4(C3)CN(c3ncco3)C4)cc2c1N(C)c1nc(-c2ccc(F)cc2)c(C#N)s1 [Example 35, 2-((2-ethyl-7-methyl-5-(6-(oxazol-2-yl)-2,6-diazaspiro[3.3]heptan-2-yl)pyrazolo[1,5-a]pyridin-3-yl)(methyl)amino)-4-(4-fluorophenyl)thiazole-5-carbonitrile]",100 to 500,100 to 500
"CCc1nn2ccc(N3CC4(CCN(C(=O)N5CC(O)C5)C4)C3)cc2c1N(C)c1nc(-c2ccc(F)cc2)c(C#N)s1 [Example 15, 2-((2-ethyl-5-(6-(3-hydroxyazetidine-1-carbonyl)-2,6-diazaspiro[3.4]octan-2-yl)pyrazolo[1,5-a]pyridin-3-yl)(methyl)amino)-4-(4-fluorophenyl)thiazole-5-carbonitrile]",≤ 100,≤ 100
"CCc1nn2ccc(N3CC4(CN(C(=O)N5CC(O)C5)C4)C3)cc2c1N(C)c1nc(-c2ccc(F)cc2)c(C#N)s1 [Example 11, 2-((2-ethyl-5-(6-(3-hydroxyazetidine-1-carbonyl)-2,6-diazaspiro[3.3]heptan-2-yl)pyrazolo[1,5-a]pyridin-3-yl)(methyl)amino)-4-(4-fluorophenyl)thiazole-5-carbonitrile]",≤ 100,≤ 100
"CCc1nn2ccc(N3CCC4(CC3)CC(C(=O)N3CC(O)C3)C4)cc2c1N(C)c1nc(-c2ccc(F)cc2)c(C#N)s1 [Example 6, 2-[[2-ethyl-5-[2-(3-hydroxyazetidine-1-carbonyl)-7-azaspiro[3.5]nonan-7-yl]pyrazolo[1,5-a]pyridin-3-yl]-methyl-amino]-4-(4-fluorophenyl)thiazole-5-carbonitrile]",≤ 100,≤ 100
"CCn1nc2ncc(N3CC4(CN(C(=O)C5(O)CCOCC5)C4)C3)cc2c1N(C)c1nc(-c2ccc(F)cc2)c(C#N)s1 [Compound 116, 2-((2-ethyl-5-(6-(4-hydroxytetrahydro-2H-pyran-4-carbonyl)-2,6-diazaspiro[3.3]heptan-2-yl)-2H-pyrazolo[3,4-b]pyridin-3-yl)(methyl)amino)-4-(4-fluorophenyl)thiazole-5-carbonitrile]",≤ 100,≤ 100
"CCc1nn2ccc(N3CCN(CC(=O)N4CC(O)C4)CC3)cc2c1N(C)c1nc(-c2ccc(F)cc2)c(C#N)s1 [Example 1, 2-((2-ethyl-5-(4-(2-(3-hydroxyazetidin-1-yl)-2-oxoethyl)piperazin-1-yl)pyrazolo[1,5-a]pyridin-3-yl)(methyl)amino)-4-(4-fluorophenyl)thiazole-5-carbonitrile]",≤ 100,≤ 100
"CCc1nn2ccc(N3CCC4(CCN(C(=O)N5CC(O)C5)C4)CC3)cc2c1N(C)c1nc(-c2ccc(F)cc2)c(C#N)s1 [Example 18, 2-((2-ethyl-5-(2-(3-hydroxyazetidine-1-carbonyl)-2,8-diazaspiro[4.5]decan-8-yl)pyrazolo[1,5-a]pyridin-3-yl)(methyl)amino)-4-(4-fluorophenyl)thiazole-5-carbonitrile]",≤ 100,≤ 100
"CCc1nn2ccc(N3CCC4(CN(C(=O)N5CC(O)C5)C4)C3)cc2c1N(C)c1nc(-c2ccc(F)cc2)c(C#N)s1 [Example 16, 2-((2-ethyl-5-(2-(3-hydroxyazetidine-1-carbonyl)-2,6-diazaspiro[3.4]octan-6-yl)pyrazolo[1,5-a]pyridin-3-yl)(methyl)amino)-4-(4-fluorophenyl)thiazole-5-carbonitrile]",≤ 100,≤ 100
